# Results: patent US9353082B2, “Pharmaceutical compounds” (BIAL—PORTELA & CA, S.A., priority 2008, dated 2016)
# How the values were obtained:
# [1] = target: T1, FAAH (Mus musculus, UniProt O08914); assay: In vivo FAAH inhibition after oral dosing, remaining activity in brain homogenate (BRh, central nervous tissue); parameters: species or system NMRI mice; conditions: brain homogenate; for In Vivo BRh 3 mg·kg 8 h (remaining FAAH activity, % of control): 8 h after dosing; for In Vivo BRh 3 mg·kg 8 h (remaining FAAH activity, % of control) / In Vivo BRh 3 mg · kg · 8 h (remaining FAAH activity): low value = strong inhibitor; for In Vivo BRh 3 mg · kg · 8 h (remaining FAAH activity): 3 mg/kg oral
# T1 construct: A fragment of liver, left lung lobe and brain without cerebellum were removed; from tissue; host or cells: male NMRI mice; brain (without cerebellum) and liver homogenates
# T1 sequence (O08914 1-579): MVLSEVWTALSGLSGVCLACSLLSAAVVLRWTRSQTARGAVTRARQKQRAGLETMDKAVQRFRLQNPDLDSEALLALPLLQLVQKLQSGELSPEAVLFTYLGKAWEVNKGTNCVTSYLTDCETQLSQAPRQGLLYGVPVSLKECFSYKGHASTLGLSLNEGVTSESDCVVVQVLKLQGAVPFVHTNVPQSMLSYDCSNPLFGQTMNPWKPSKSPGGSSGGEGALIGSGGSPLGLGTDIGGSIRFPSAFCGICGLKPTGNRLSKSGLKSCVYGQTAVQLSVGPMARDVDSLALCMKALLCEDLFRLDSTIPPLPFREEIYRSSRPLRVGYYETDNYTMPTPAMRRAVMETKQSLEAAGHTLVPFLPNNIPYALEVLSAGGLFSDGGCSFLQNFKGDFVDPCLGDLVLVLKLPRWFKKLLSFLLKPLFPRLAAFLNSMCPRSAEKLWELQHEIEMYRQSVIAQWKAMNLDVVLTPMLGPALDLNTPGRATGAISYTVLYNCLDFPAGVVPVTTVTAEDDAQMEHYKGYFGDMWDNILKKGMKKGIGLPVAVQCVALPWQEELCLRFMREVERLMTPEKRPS
# Outline: (§1)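 Male NMRI mice, fasted overnight, got 30 or 3 mg/kg compound orally (0.5% CMC suspension or water) and were compared with vehicle controls. Brain (no cerebellum) and liver homogenates were incubated with 2 μM AEA plus 5 nM 3H-AEA at 37 °C, 10 min for brain and 7 min for liver. Remaining FAAH activity is % of vehicle after blank subtraction.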
# [2] = target: T2, FAAH (Rattus norvegicus, UniProt P97612); assay: In vitro FAAH activity in rat brain membranes, 3H-AEA substrate, % of control; format: biochemical, Wistar rats; conditions: low value = strong inhibitor; for In Vitro 100 nM (FAAH activity, % of control): rat brain membranes, compound at 100 nM; for In Vitro FAAH activity, 100 nM: 100 nM test compound; for In Vitro FAAH activity, 10 uM: 10 uM test compound
# T2 construct: Frozen brains (without cerebellum) from Wistar rats were used; from tissue; host or cells: Wistar rat brain (without cerebellum), washed membrane pellets
# T2 sequence (P97612 1-579): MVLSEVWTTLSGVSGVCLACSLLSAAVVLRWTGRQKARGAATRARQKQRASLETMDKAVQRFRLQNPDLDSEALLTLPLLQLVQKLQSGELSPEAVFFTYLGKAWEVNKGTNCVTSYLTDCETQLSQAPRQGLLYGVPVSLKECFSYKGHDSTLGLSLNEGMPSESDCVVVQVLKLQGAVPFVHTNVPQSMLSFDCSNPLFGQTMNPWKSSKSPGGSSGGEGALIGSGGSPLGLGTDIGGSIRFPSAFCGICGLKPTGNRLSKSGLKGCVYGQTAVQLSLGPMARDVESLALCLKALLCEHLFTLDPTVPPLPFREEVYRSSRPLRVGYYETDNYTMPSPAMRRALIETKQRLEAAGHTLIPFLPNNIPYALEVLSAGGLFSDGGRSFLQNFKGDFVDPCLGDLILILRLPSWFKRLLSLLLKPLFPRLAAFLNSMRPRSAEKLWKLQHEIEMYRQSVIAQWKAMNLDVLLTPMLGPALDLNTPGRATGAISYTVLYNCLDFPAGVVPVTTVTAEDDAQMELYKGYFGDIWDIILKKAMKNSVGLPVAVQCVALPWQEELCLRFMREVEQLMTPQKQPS
# Outline: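 Wistar rat brain membranes (5 μg protein) preincubated 15 min at 37 °C with compound at 10 μM or 0.1 μM (0.1% DMSO), then 2 μM AEA including 3H-AEA with 0.1% BSA, Tris pH 7.6, 10 min. 3H-ethanolamine counted after charcoal stop; % of no-compound control after blank subtraction.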
# [3] = target: T1, FAAH; assay: In vivo FAAH inhibition after oral dosing, remaining activity in liver homogenate (LVh, peripheral tissue); parameters: species or system NMRI mice; conditions: liver homogenate; for In Vivo LVh 3 mg·kg 8 h (remaining FAAH activity, % of control): 8 h after dosing; for In Vivo LVh 3 mg·kg 8 h (remaining FAAH activity, % of control) / In Vivo LVh 3 mg · kg · 8 h (remaining FAAH activity): low value = strong inhibitor; for In Vivo LVh 3 mg · kg · 8 h (remaining FAAH activity): 3 mg/kg oral
# Outline: as §1
"In Vivo BRh 3 mg·kg 8 h (remaining FAAH activity, % of control) [1]","In Vivo LVh 3 mg·kg 8 h (remaining FAAH activity, % of control) [3]","In Vivo BRh 3 mg/kg 8 h, remaining FAAH activity [1]","In Vitro FAAH activity, 100 nM [2]","In Vivo LVh 3 mg/kg 8 h, remaining FAAH activity [3]",Compound,also measured
105.8 % of control,85.7 % of control,,,,"CN(C(=O)n1cnc(-c2cccc(-c3cccc(C(N)=O)c3)c2)c1)C12CC3CC(CC(C3)C1)C2 [Compound 287, 4-(3′-carbamoylbiphenyl-3-yl)-N-methyl-N-tricyclo[3.3.1.13,7]dec-1-yl-1H-imidazole-1-carboxamide-propan-2-ol (1:1)]","In Vitro 100 nM (FAAH activity, % of control) [2]: 127.3 % of control"
,,33.5 % of control,74.1 % of control,21.1 % of control,"CCC1(C)OCCN1C(=O)n1cnc(-c2ccc(Cl)cc2)c1 (centres unmarked) [Compound 233, (4-(4-chlorophenyl)-1H-imidazol-1-yl)(2-ethyl-2-methyloxazolidin-3-yl)methanone]",
104 % of control,93 % of control,,,,"Cc1nc(-c2ccccc2)nn1C(=O)N1COCC1(C)C [Compound 286, (4,4-dimethyloxazolidin-3-yl)(5-methyl-3-phenyl-1H-1,2,4-triazol-1-yl)methanone]","In Vitro 100 nM (FAAH activity, % of control) [2]: 112.8 % of control"
,,92 % of control,0.3 % of control,85.6 % of control,"Cl.O=C(N1CCN(Cc2ccccc2)CC1)n1cnc(-c2cccs2)n1 [Compound 158, (4-benzylpiperazin-1-yl)(3-(thiophen-2-yl)-1H-1,2,4-triazol-1-yl)methanone hydrochloride]",
,,,0.1 % of control,,"O=C(N1CCN(Cc2ccc3c(c2)OCO3)CC1)n1nnc2ccccc21.O=C(O)C(=O)O [Compound 48, (1H-benzo[d][1,2,3]triazol-1-yl)(4-(benzo[d][1,3]dioxol-5-ylmethyl)piperazin-1-yl)methanone oxalate]","In Vivo BRh 30 mg/kg 1 h, remaining FAAH activity [1]: 21.8 % of control; In Vivo LVh 30 mg/kg 1 h, remaining FAAH activity [3]: 20.1 % of control"
,,16.4 % of control,4 % of control,4.6 % of control,"CN(C(=O)n1cnc(-c2cccc(-c3ccccc3)c2)c1)C1CCCCC1 [Compound 239, 4-(biphenyl-3-yl)-N-cyclohexyl-N-methyl-1H-imidazole-1-carboxamide]",
,,108.5 % of control,76.2 % of control,80.1 % of control,"CC1OCC(C)(C)N1C(=O)n1cnc(-c2ccc(Cl)cc2)c1 (centres unmarked) [Compound 235, (4-(4-chlorophenyl)-1H-imidazol-1-yl)(2,4,4-trimethyloxazolidin-3-yl)methanone]",
76.6 % of control,24.5 % of control,,,,"CC1(C)COCN1C(=O)n1cnc(-c2cccc(O)c2)c1 [Compound 347, (4,4-dimethyloxazolidin-3-yl)(4-(3-hydroxyphenyl)-1H-imidazol-1-yl)methanone]","In Vitro 100 nM (FAAH activity, % of control) [2]: 109.6 % of control"
,,98.3 % of control,81 % of control,89.9 % of control,"Cc1c(-c2ccccc2)ncn1C(=O)N(C)C1CCCCC1 [Compound 254, N-cyclohexyl-N,5-dimethyl-4-phenyl-1H-imidazole-1-carboxamide]","In Vitro FAAH activity, 10 uM [2]: 109 % of control"
,,0.2 % of control,0 % of control,2.2 % of control,"O=C(NC12CC3CC(CC(C3)C1)C2)n1nnc2ccccc21 [Compound 126, N-adamantyl-1H-benzo[d][1,2,3]triazole-1-carboxamide]",
,,115 % of control,88 % of control,76.6 % of control,"Cc1c(-c2ccccc2)ncn1C(=O)N(C)Cc1ccccc1 [Compound 264, N-benzyl-N,5-dimethyl-4-phenyl-1H-imidazole-1-carboxamide]",
1.6 % of control,1.8 % of control,,,,"CN(C(=O)n1cnc(-c2ccccc2)c1)C1CCOCC1 [Compound 278, N-methyl-4-phenyl-N-(tetrahydro-2H-pyran-4-yl)-1H-imidazole-1-carboxamide]","In Vitro 100 nM (FAAH activity, % of control) [2]: 103.5 % of control"
94.4 % of control,58.6 % of control,,,,"CN(C(=O)n1cnc(-c2ccc(O)c(-c3nn[nH]n3)c2)c1)C1CCCCC1 [Compound no. 439, N-cyclohexyl-4-(4-hydroxy-3-(2H-tetrazol-5-yl)phenyl)-N-methyl-1H-imidazole-1-carboxamide]",
,,,,,"CN(C(=O)n1cnc(-c2ccc(O)c(C(N)=O)c2)c1)C1CCCCC1 [Compound no. 499, 4-(3-carbamoyl-4-hydroxyphenyl)-N-cyclohexyl-N-methyl-1H-imidazole-1-carboxamide]",In Vivo BRh 3 mg · kg · 8 h (remaining FAAH activity) [1]: 120.6 % of control; In Vivo LVh 3 mg · kg · 8 h (remaining FAAH activity) [3]: 44.1 % of control
,,,,,"COc1ccc(-c2cn(C(=O)N(C)C3CCN(CCO)CC3)cn2)cc1F [Compound no. 540, 4-(3-fluoro-4-methoxyphenyl)-N-(1-(2-hydroxyethyl)piperidin-4-yl)-N-methyl-1H-imidazole-1-carboxamide]",In Vivo BRh 3 mg · kg · 8 h (remaining FAAH activity) [1]: 89.7 % of control; In Vivo LVh 3 mg · kg · 8 h (remaining FAAH activity) [3]: 33.7 % of control
11.8 % of control,6.5 % of control,,,,"CN(C)c1ccc(-c2cn(C(=O)N(C)C3CCCCC3)cn2)cc1N [Compound no. 447, 4-(3-amino-4-(dimethylamino)phenyl)-N-cyclohexyl-N-methyl-1H-imidazole-1-carboxamide]",
23.2 % of control,3.3 % of control,,,,"CC1(C)COCN1C(=O)n1nnc2cc(C(=O)NO)ccc21 [Compound no. 440, 1-(4,4-dimethyloxazolidine-3-carbonyl)-N-hydroxy-1H-benzo[d][1,2,3]triazole-5-carboxamide]",
3.5 % of control,1.7 % of control,,,,"COc1ccc2nnn(C(=O)N3COCC3(C)C)c2c1 [Compound 293, (4,4-dimethyloxazolidin-3-yl)(6-methoxy-1H-benzo[d][1,2,3]triazol-1-yl)methanone]",

Compound,"In Vivo BRh 3 mg·kg 8 h (remaining FAAH activity, % of control) [1]","In Vivo LVh 3 mg·kg 8 h (remaining FAAH activity, % of control) [3]","In Vivo BRh 3 mg/kg 8 h, remaining FAAH activity [1]","In Vitro FAAH activity, 100 nM [2]","In Vivo LVh 3 mg/kg 8 h, remaining FAAH activity [3]",also measured
"CN(C(=O)n1nnc2ccccc21)c1ccccc1 [Compound 34, N-methyl-N-phenyl-1H-benzo[d][1,2,3]triazole-1-carboxamide]",,,,0.6 % of control,,"In Vivo BRh 30 mg/kg 1 h, remaining FAAH activity [1]: 33.6 % of control; In Vitro FAAH activity, 10 uM [2]: 0 % of control; In Vivo LVh 30 mg/kg 1 h, remaining FAAH activity [3]: 34.3 % of control"
